Data reported in PubChem BioAssay (NCI).
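Cells were grown in 96-well plates and exposed to each compound for 48 hours at five concentrations; endpoints were interpolated linearly between bracketing concentrations, or set to the highest concentration if not reached. The concentration for 50% growth inhibition is given as GI50. TGI is the concentration that stops growth completely.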

Assays:
Test in all cases: NCI-60 cell line screen, 48 h
[1] = system: 786-0 renal
[2] = system: A498 renal
[3] = system: A549 NSCLC
[4] = system: ACHN renal
[5] = system: CAKI-1 renal
[6] = system: CCRF-CEM leukemia
[7] = system: COLO 205 colon
[8] = system: DLD-1 colon
[9] = system: DMS 114 small cell lung
[10] = system: EKVX NSCLC
[11] = system: HCC-2998 colon
[12] = system: HCT-116 colon
[13] = system: HCT-15 colon
[14] = system: HOP-18 NSCLC
[15] = system: HOP-92 NSCLC
[16] = system: HT29 colon
[17] = system: IGROV1 ovarian
[18] = system: K-562 leukemia
[19] = system: KM12 colon
[20] = system: KM20L2 colon
[21] = system: LOX IMVI melanoma
[22] = system: LXFL 529 NSCLC
[23] = system: M14 melanoma
[24] = system: M19-MEL melanoma
[25] = system: MALME-3M melanoma
[26] = system: MOLT-4 leukemia
[27] = system: NCI-H226 lung
[28] = system: NCI-H23 lung
[29] = system: NCI-H460 lung
[30] = system: NCI-H522 lung
[31] = system: OVCAR-3 ovarian
[32] = system: OVCAR-4 ovarian
[33] = system: OVCAR-5 ovarian
[34] = system: OVCAR-8 ovarian
[35] = system: RPMI-8226 leukemia
[36] = system: RXF 393 renal
[37] = system: RXF-631 renal
[38] = system: SF-268 CNS
[39] = system: SF-539 CNS
[40] = system: SK-MEL-2 melanoma
[41] = system: SK-MEL-28 melanoma
[42] = system: SK-MEL-5 melanoma
[43] = system: SN12C renal
[44] = system: SNB-19 CNS
[45] = system: SNB-75 CNS
[46] = system: SNB-78 CNS
[47] = system: SW-620 colon
[48] = system: TK-10 renal
[49] = system: U251 CNS
[50] = system: UACC-257 melanoma
[51] = system: UACC-62 melanoma
[52] = system: UO-31 renal
[53] = system: XF 498 CNS

## CCC[CH2][Sn]([CH2]CCC)([O]C(=O)C(N)CSC)[O]C(=O)C(N)CSC (stereo not given)
[1]
  GI50: 8.14 µM
  TGI: 21.8 µM
[2]
  GI50: 3.91 µM
[3]
  GI50: 27.7 µM
  TGI: > 79.7 µM
[4]
  GI50: 12.3 µM
  TGI: 30.2 µM
[5]
  GI50: 5 µM
  TGI: 17.4 µM
[6]
  GI50: 1.73 µM
  TGI: 6.43 µM
[7]
  GI50: 6.5 µM
  TGI: 19.9 µM
[8]
  GI50: 6.44 µM
  TGI: 18.3 µM
[9]
  GI50: 2.72 µM
  TGI: 12.8 µM
[10]
  GI50: 12.1 µM
  TGI: 27.1 µM
[11]
  GI50: 13.1 µM
  TGI: 30.5 µM
[12]
  GI50: 11.6 µM
  TGI: 24.7 µM
[13]
  GI50: 11.6 µM
  TGI: 25.4 µM
[14]
  GI50: 10.2 µM
  TGI: 21.8 µM
[15]
  GI50: 8.05 µM
  TGI: 20.3 µM
[16]
  GI50: 17.2 µM
  TGI: 44.7 µM
[17]
  GI50: 17.8 µM
  TGI: 34.2 µM
[18]
  GI50: 0.846 µM
  TGI: 7.81 µM
[19]
  GI50: 13.3 µM
  TGI: 29.4 µM
[20]
  GI50: 18.6 µM
  TGI: 53.4 µM
[21]
  GI50: 7.17 µM
  TGI: 26.3 µM
[22]
  GI50: 0.969 µM
  TGI: 3.49 µM
[23]
  GI50: 10.5 µM
  TGI: 16.2 µM
[24]
  GI50: 6.65 µM
  TGI: 19.5 µM
[25]
  GI50: 7.19 µM
  TGI: 48.7 µM
[26]
  GI50: 2.42 µM
  TGI: 7.65 µM
[27]
  GI50: 20.5 µM
  TGI: 34.9 µM
[28]
  GI50: 2.75 µM
  TGI: 13.1 µM
[29]
  GI50: 29.7 µM
  TGI: 90.1 µM
[30]
  GI50: 1.34 µM
  TGI: 3.39 µM
[31]
  GI50: 12.5 µM
  TGI: 25.4 µM
[32]
  GI50: 13 µM
  TGI: 26.1 µM
[33]
  GI50: 15.7 µM
  TGI: 35.6 µM
[34]
  GI50: 12.6 µM
  TGI: 38.1 µM
[35]
  GI50: 2.16 µM
  TGI: 7.58 µM
[36]
  GI50: 6.83 µM
  TGI: 18.8 µM
[37]
  GI50: 3.16 µM
  TGI: 17.3 µM
[38]
  GI50: 4.06 µM
  TGI: 11.3 µM
[39]
  GI50: 13.3 µM
  TGI: 26.7 µM
[40]
  GI50: 2.78 µM
  TGI: 8.79 µM
[41]
  GI50: 5.86 µM
  TGI: 18.2 µM
[42]
  GI50: 11.6 µM
  TGI: 25 µM
[43]
  GI50: 8.82 µM
  TGI: 23.4 µM
[44]
  GI50: 12.1 µM
  TGI: 24.6 µM
[45]
  GI50: 10 µM
  TGI: 31.6 µM
[46]
  GI50: 3.17 µM
  TGI: 9.64 µM
[47]
  GI50: 6.08 µM
  TGI: 23 µM
[48]
  GI50: 9.03 µM
  TGI: 21.5 µM
[49]
  GI50: 11.3 µM
  TGI: 25.1 µM
[50]
  GI50: 11.8 µM
  TGI: 26.1 µM
[51]
  GI50: 10.4 µM
  TGI: 23 µM
[52]
  GI50: 14.3 µM
  TGI: 27.4 µM
[53]
  GI50: 5.54 µM
  TGI: 19 µM
